Measured values published in ChEMBL document CHEMBL5113471 (Eur J Med Chem, 2022).
pIC50: −log10 of the molar value. The source made the active and inactive calls. The calls are words filed in the database; no cut-off is given here.

Columns and labels:
CAPAN-1 [1] = experiment: Antiproliferative activity against BRCA2-deficient human CAPAN-1 cells assessed as inhibition of cell proliferation incubated for 7 days by CellTiter-Glo assay; type: functional, cell-based; settings: CAPAN-1, 168 h
[2] = Antiproliferative activity against human UWB1289 cells with restoration of BRCA1 expression assessed as inhibition of cell proliferation incubated for 7 days by SRB assay; type: functional, cell-based; settings: UWB1289, 168 h
MDA-MB-436 [3] = experiment: Antiproliferative activity against BRCA1-deficient human MDA-MB-436 cells assessed as inhibition of cell proliferation incubated for 7 days by CCK-8 assay; type: functional, cell-based; settings: MDA-MB-436, 168 h
[4] = Antiproliferative activity against BRCA1-deficient human UWB1289 cells assessed as inhibition of cell proliferation incubated for 7 days by SRB assay; type: functional, cell-based; settings: UWB1289, 168 h
[5] = target: Poly [ADP-ribose] polymerase 1 (Homo sapiens, UniProt P09874); experiment: Inhibition of human recombinant PARP1 in presence of NAD+ by ELISA
CAPAN-1 [6] = experiment: Induction of apoptosis in human CAPAN-1 cells assessed as early apoptotic cells at 5 uM incubated for 96 hrs by AnnexinV-FITC/PI staining based flow cytometry (reference value: 5.08%); type: functional
MDA-MB-436 [7] = experiment: Induction of DNA double strand breaks in human MDA-MB-436 cells assessed as increase in gamma-H2AX level incubated for 48 hrs by western blot analysis; type: functional, cell-based; settings: dose 0.1-1 µM, DDE = dose-dependent effect
CAPAN-1 [8] = experiment: Induction of apoptosis in human CAPAN-1 cells assessed as early apoptotic cells at 10 uM incubated for 96 hrs by AnnexinV-FITC/PI staining based flow cytometry (reference value: 5.08%); type: functional
CAPAN-1 [9] = experiment: Induction of apoptosis in human CAPAN-1 cells assessed as late apoptotic cells at 5 uM incubated for 96 hrs by AnnexinV-FITC/PI staining based flow cytometry (reference value: 8.99%); type: functional
CAPAN-1 [10] = experiment: Induction of apoptosis in human CAPAN-1 cells assessed as late apoptotic cells at 1 uM incubated for 96 hrs by AnnexinV-FITC/PI staining based flow cytometry (reference value: 8.99%); type: functional
CAPAN-1 [11] = experiment: Induction of DNA double strand breaks in human CAPAN-1 cells assessed as increase in gamma-H2AX level incubated for 48 hrs by western blot analysis; type: functional, cell-based; settings: dose 0.1-1 µM, DDE = dose-dependent effect
CAPAN-1 [12] = experiment: Induction of apoptosis in human CAPAN-1 cells assessed as early apoptotic cells at 1 uM incubated for 96 hrs by AnnexinV-FITC/PI staining based flow cytometry (reference value: 5.08%); type: functional
CAPAN-1 [13] = experiment: Induction of apoptosis in human CAPAN-1 cells assessed as late apoptotic cells at 10 uM incubated for 96 hrs by AnnexinV-FITC/PI staining based flow cytometry (reference value: 8.99%); type: functional
CAPAN-1 [14] = experiment: Induction of DNA double strand breaks in human CAPAN-1 cells assessed as increase in gamma-H2AX level at 10 uM incubated for 48 hrs by immunofluorescence-based laser confocal microscopy; type: functional, cell-based
CAPAN-1 [15] = experiment: Induction of cell cycle arrest at G2/M phase in human CAPAN-1 cells incubated for 48 hrs by propidium iodide staining based flow cytometry; type: functional; settings: dose 1-10 µM, DDE = dose-dependent effect
[16] = Cytotoxicity against human WI-38 cells expressing wild type BRCA1 assessed as inhibition of cell proliferation incubated for 7 days by SRB assay; type: toxicity, cell-based
[17] = Cytotoxicity against human IMR-90 cells expressing wild type BRCA-1 assessed as inhibition of cell proliferation incubated for 7 days by SRB assay; type: toxicity, cell-based
MDA-MB-436 [18] = experiment: Induction of DNA double strand breaks in human MDA-MB-436 cells assessed as increase in Chk1 phosphorylation at Ser345 residue incubated for 48 hrs by western blot analysis; type: functional, cell-based; settings: dose 0.1-1 µM
CAPAN-1 [19] = experiment: Induction of DNA double strand breaks in human CAPAN-1 cells assessed as increase in Chk1 phosphorylation at Ser345 residue incubated for 48 hrs by western blot analysis; type: functional, cell-based; settings: dose 0.1-1 µM

Poly [ADP-ribose] polymerase 1, sequence (P09874 whole entry): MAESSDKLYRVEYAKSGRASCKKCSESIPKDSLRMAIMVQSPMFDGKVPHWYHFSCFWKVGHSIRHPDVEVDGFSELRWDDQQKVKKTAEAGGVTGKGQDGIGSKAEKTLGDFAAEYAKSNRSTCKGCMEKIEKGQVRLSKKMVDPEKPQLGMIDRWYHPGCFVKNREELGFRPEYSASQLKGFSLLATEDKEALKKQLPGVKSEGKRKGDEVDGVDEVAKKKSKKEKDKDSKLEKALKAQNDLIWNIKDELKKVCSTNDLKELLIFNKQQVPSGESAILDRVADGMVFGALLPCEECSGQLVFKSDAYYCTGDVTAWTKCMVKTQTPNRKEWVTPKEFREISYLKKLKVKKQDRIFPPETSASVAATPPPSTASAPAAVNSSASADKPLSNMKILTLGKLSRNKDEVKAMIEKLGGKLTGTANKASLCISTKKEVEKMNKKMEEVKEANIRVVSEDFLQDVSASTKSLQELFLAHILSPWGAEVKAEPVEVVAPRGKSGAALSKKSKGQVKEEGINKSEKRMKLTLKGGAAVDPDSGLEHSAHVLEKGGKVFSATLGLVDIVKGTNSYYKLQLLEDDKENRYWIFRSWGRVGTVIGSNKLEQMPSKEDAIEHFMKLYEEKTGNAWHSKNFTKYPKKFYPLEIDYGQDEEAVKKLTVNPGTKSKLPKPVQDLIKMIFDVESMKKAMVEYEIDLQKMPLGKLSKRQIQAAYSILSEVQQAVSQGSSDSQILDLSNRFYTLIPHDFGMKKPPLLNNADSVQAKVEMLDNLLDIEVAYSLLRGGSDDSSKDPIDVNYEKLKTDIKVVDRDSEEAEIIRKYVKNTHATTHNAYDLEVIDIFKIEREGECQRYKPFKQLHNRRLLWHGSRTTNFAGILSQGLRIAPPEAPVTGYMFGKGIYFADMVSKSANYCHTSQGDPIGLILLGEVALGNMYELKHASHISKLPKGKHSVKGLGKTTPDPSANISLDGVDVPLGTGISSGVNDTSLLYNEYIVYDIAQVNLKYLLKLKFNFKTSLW

SMILES: C[C@H]1CCC[C@]2(C)CC3OC(=O)C(CNCCCC(=O)N4CCN(C(=O)c5cc(Cc6n[nH]c(=O)c7ccccc67)ccc5F)CC4)C3C=C12 (some centres not stated)
- pIC50 (CAPAN-1 [1]): 6.00
- pIC50 [2]: 5.65
- pIC50 (MDA-MB-436 [3]): 6.70
- pIC50 [4]: 5.95
- pIC50 [5]: 8.08

SMILES: C[C@]12CCC=C(C=O)C1=CC1C(C2)OC(=O)C1CNCCOCCOCC(=O)N1CCN(C(=O)c2cc(Cc3n[nH]c(=O)c4ccccc34)ccc2F)CC1 (some centres not stated)
- pIC50 [5]: 7.05

SMILES: C=C1C(=O)OC2C[C@@]3(C)CCC=C(COC(=O)C4CN(C(=O)c5cc(Cc6n[nH]c(=O)c7ccccc67)ccc5F)C4)C3=CC12 (some centres not stated)
- pIC50 [5]: 6.55

SMILES: C[C@H]1CCC[C@]2(C)CC3OC(=O)C(CNCCC(=O)N4CCN(C(=O)c5cc(Cc6n[nH]c(=O)c7ccccc67)ccc5F)CC4)C3C=C12 (some centres not stated)
- pIC50 [5]: 7.81

SMILES: C=C1C(=O)OC2C[C@@]3(C)CCC=C(CN4CCN(C(=O)c5cc(Cc6n[nH]c(=O)c7ccccc67)ccc5F)CC4)C3=CC12 (some centres not stated)
- pIC50 [5]: 6.77

SMILES: C=C1C(=O)OC2C[C@@]3(C)CCC=C(COC(=O)CC4CCCN(C(=O)c5cc(Cc6n[nH]c(=O)c7ccccc67)ccc5F)C4)C3=CC12 (some centres not stated)
- pIC50 [5]: 7.19

SMILES: C=C1C(=O)OC2C[C@@]3(C)CCC=C(COC(=O)COCCOCCNC(=O)c4cc(Cc5n[nH]c(=O)c6ccccc56)ccc4F)C3=CC12 (some centres not stated)
- pIC50 [5]: 7.41

SMILES: C[C@H]1CCC[C@]2(C)CC3OC(=O)C(CN(C)CC(=O)N4CCN(C(=O)c5cc(Cc6n[nH]c(=O)c7ccccc67)ccc5F)CC4)C3C=C12 (some centres not stated)
- pIC50 [5]: 7.69

SMILES: C[C@H]1CCC[C@]2(C)CC3OC(=O)C(CN(C)CCCC(=O)N4CCN(C(=O)c5cc(Cc6n[nH]c(=O)c7ccccc67)ccc5F)CC4)C3C=C12 (some centres not stated)
- pIC50 [5]: 7.37

SMILES: C[C@]12CCC=C(CO)C1=CC1C(C2)OC(=O)C1CNCCCCCCCC(=O)N1CCN(C(=O)c2cc(Cc3n[nH]c(=O)c4ccccc34)ccc2F)CC1 (some centres not stated)
- pIC50 [5]: 6.37

SMILES: C[C@H]1CCC[C@]2(C)CC3OC(=O)C(CN4CCN(C(=O)c5cc(Cc6n[nH]c(=O)c7ccccc67)ccc5F)CC4)C3C=C12 (some centres not stated)
- pIC50 [5]: 6.87

SMILES: C[C@H]1CCC[C@]2(C)CC3OC(=O)C(CNOCC(=O)N4CCN(C(=O)c5cc(Cc6n[nH]c(=O)c7ccccc67)ccc5F)CC4)C3C=C12 (some centres not stated)
- pIC50 [5]: 7.70

SMILES: C=C1C(=O)OC2C[C@@]3(C)CCC=C(COC(=O)CCC4CCN(C(=O)c5cc(Cc6n[nH]c(=O)c7ccccc67)ccc5F)CC4)C3=CC12 (some centres not stated)
- pIC50 [5]: 7.10

SMILES: C[C@H]1CCC[C@]2(C)CC3OC(=O)C(CNCC(=O)N4CCN(C(=O)c5cc(Cc6n[nH]c(=O)c7ccccc67)ccc5F)CC4)C3C=C12 (some centres not stated)
- pIC50 [5]: 7.59

SMILES: O=C(c1cc(Cc2n[nH]c(=O)c3ccccc23)ccc1F)N1CCN(C(=O)C2CC2)CC1 [OLAPARIB]
- pIC50 (CAPAN-1 [1]): 6.28
- pIC50 [2]: 5.33
- Activity (CAPAN-1 [6]): 5.74%
- Activity (MDA-MB-436 [7]): Dde
- Activity (CAPAN-1 [8]): 9.82%
- pIC50 (MDA-MB-436 [3]): 7.00
- Activity (CAPAN-1 [9]): 12.9%
- Activity (CAPAN-1 [10]): 10.1%
- Activity (CAPAN-1 [11]): Dde
- Activity (CAPAN-1 [12]): 4.92%
- pIC50 [4]: 6.18
- Activity (CAPAN-1 [13]): 19%
- Activity (CAPAN-1 [14]): Active

SMILES: C=C1C(=O)O[C@@H]2C[C@@]3(C)CCC[C@H](C)C3=C[C@H]12 [HELENINE]
- pIC50 [5]: < 5.00

SMILES: C[C@]12CCC=C(CO)C1=CC1C(C2)OC(=O)C1CN1CCN(C(=O)c2cc(Cc3n[nH]c(=O)c4ccccc34)ccc2F)CC1 (some centres not stated)
- pIC50 [5]: 7.02

SMILES: C=C1C(=O)OC2C[C@@]3(C)CCC=C(COC(=O)c4cc(Cc5n[nH]c(=O)c6ccccc56)ccc4F)C3=CC12 (some centres not stated)
- pIC50 [5]: 5.59

SMILES: C[C@H]1CCC[C@]2(C)CC3OC(=O)C(CN(C)CCC(=O)N4CCN(C(=O)c5cc(Cc6n[nH]c(=O)c7ccccc67)ccc5F)CC4)C3C=C12 (some centres not stated)
- pIC50 [5]: 7.36

SMILES: C=C1C(=O)OC2C[C@@]3(C)CCC=C(COC(=O)CCNC(=O)c4cc(Cc5n[nH]c(=O)c6ccccc56)ccc4F)C3=CC12 (some centres not stated)
- pIC50 [5]: 6.87

SMILES: C[C@]12CCC=C(CO)C1=CC1C(C2)OC(=O)C1CNCCOCCOCC(=O)N1CCN(C(=O)c2cc(Cc3n[nH]c(=O)c4ccccc34)ccc2F)CC1 (some centres not stated)
- Activity (CAPAN-1 [15]): Dde
- pIC50 (CAPAN-1 [1]): 6.12
- pIC50 [2]: 5.59
- Activity (CAPAN-1 [6]): 9.68%
- Activity (MDA-MB-436 [7]): Dde
- Activity (CAPAN-1 [8]): 12.5%
- pIC50 (MDA-MB-436 [3]): 6.72
- Activity (CAPAN-1 [9]): 16.5%
- Activity (CAPAN-1 [10]): 12.6%
- Activity (CAPAN-1 [11]): Dde
- Activity (CAPAN-1 [12]): 6.64%
- IC50 at 7 days [16]: 12000 nM
- IC50 at 7 days [17]: 10100 nM
- pIC50 [4]: 6.39
- Activity (MDA-MB-436 [18]): Active
- Activity (CAPAN-1 [13]): 33.5%
- Activity (CAPAN-1 [19]): Active
- pIC50 [5]: 8.23
- Activity (CAPAN-1 [14]): Active

SMILES: C=C1C(=O)OC2C[C@@]3(C)CCC=C(COC(=O)CCCC4CCN(C(=O)c5cc(Cc6n[nH]c(=O)c7ccccc67)ccc5F)CC4)C3=CC12 (some centres not stated)
- pIC50 [5]: 6.89

SMILES: C[C@H]1CCC[C@]2(C)CC3OC(=O)C(CNCCOCCOCCOCC(=O)N4CCN(C(=O)c5cc(Cc6n[nH]c(=O)c7ccccc67)ccc5F)CC4)C3C=C12 (some centres not stated)
- pIC50 [5]: 7.13

SMILES: C=C1C(=O)OC2C[C@@]3(C)CCC=C(COC(=O)CCN(C)C(=O)c4cc(Cc5n[nH]c(=O)c6ccccc56)ccc4F)C3=CC12 (some centres not stated)
- pIC50 (CAPAN-1 [1]): 5.89
- pIC50 [2]: 5.92
- pIC50 (MDA-MB-436 [3]): 5.66
- pIC50 [4]: 6.05
- pIC50 [5]: 8.66

SMILES: C[C@H]1CCC[C@]2(C)CC3OC(=O)C(CNCCCCCCCC(=O)N4CCN(C(=O)c5cc(Cc6n[nH]c(=O)c7ccccc67)ccc5F)CC4)C3C=C12 (some centres not stated)
- Activity (CAPAN-1 [15]): Dde
- pIC50 (CAPAN-1 [1]): 6.06
- pIC50 [2]: 5.84
- Activity (CAPAN-1 [6]): 7.21%
- Activity (MDA-MB-436 [7]): Dde
- Activity (CAPAN-1 [8]): 35.4%
- pIC50 (MDA-MB-436 [3]): 6.72
- Activity (CAPAN-1 [9]): 13.9%
- Activity (CAPAN-1 [10]): 14.4%
- Activity (CAPAN-1 [11]): Dde
- Activity (CAPAN-1 [12]): 5.52%
- IC50 at 7 days [16]: 11800 nM
- IC50 at 7 days [17]: 11700 nM
- pIC50 [4]: 6.57
- Activity (MDA-MB-436 [18]): Active
- Activity (CAPAN-1 [13]): 58.2%
- Activity (CAPAN-1 [19]): Active
- pIC50 [5]: 8.52
- Activity (CAPAN-1 [14]): Active

SMILES: C=C1C(=O)OC2C[C@@]3(C)CCC=C(COC(=O)CC4CCN(C(=O)c5cc(Cc6n[nH]c(=O)c7ccccc67)ccc5F)CC4)C3=CC12 (some centres not stated)
- pIC50 [5]: 7.16
